Experimental findings from patent publication US20240254129A1, “HETEROCYCLIC COMPOUNDS AND USES THEREOF” (Kumquat Biosciences Inc., priority 2021, published 2024) are described below.

One test concerns the target T1, wildtype Kras / hSOS1 (Homo sapiens, UniProt P01116).
T1 construct: made in house; host or cells: E. coli BL21 (DE3)
The test is described as follows: HTRF assay, wildtype Kras / SOS1 interaction. Type of test: binding. The settings on record: compound nos. 401-703; read-out: IC50 against wildtype Kras. A digest of the protocol:
(§1)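 HTRF read-out of GST-tagged K-Ras (mutant or wildtype) binding His-hSOS1, via anti-GST-Eu donor and anti-6His-XL665 acceptor; buffer ~5 mM HEPES pH 7.4, ~150 mM NaCl, ~1 mM DTT, 0.05% BSA, 0.0025% Igepal. Read after ≥~10 min; duplicates, 10 μM to 0.01 μM; IC50 from 665/620 nm ratio.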
On the technique in general: In TR-FRET formats the signal depends on donor and acceptor labels being close together.

In test [1] the target is GST-tagged K-Ras mutant / His-tagged hSOS1 (Homo sapiens, UniProt P01116). The test is described as follows: HTRF assay, K-Ras mutant / SOS1 interaction. Type of test: binding. The settings on record: compound nos. 401-703; read-out: IC50 against mutant Kras. A digest of the protocol: as §1
Sequence of GST-tagged K-Ras mutant / His-tagged hSOS1 (P01116 whole entry G12D, form open): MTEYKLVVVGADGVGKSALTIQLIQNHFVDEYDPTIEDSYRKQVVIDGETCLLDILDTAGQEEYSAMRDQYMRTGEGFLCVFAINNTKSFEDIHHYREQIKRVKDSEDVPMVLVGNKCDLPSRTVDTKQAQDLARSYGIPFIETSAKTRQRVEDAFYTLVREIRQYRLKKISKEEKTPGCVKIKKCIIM

T1 sequence (P01116 1-188 isoform P01116-2): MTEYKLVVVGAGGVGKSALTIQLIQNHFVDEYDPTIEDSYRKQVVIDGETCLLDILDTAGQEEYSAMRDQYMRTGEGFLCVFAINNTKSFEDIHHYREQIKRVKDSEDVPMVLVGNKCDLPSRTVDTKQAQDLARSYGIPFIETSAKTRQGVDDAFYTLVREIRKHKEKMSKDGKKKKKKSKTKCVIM

As to `CC1CCCN(c2nc(OC[C@@H]3CCCN3C)nc3c(F)c(-c4cccc5sc(N)nc45)c(Cl)cc23)CC1` (stereo partly drawn) [Compound 416, 4-(6-chloro-8-fluoro-4-(4-methylazepan-1-yl)-2-(((S)-1-methylpyrrolidin-2-yl)-methoxy)quinazolin-7-yl)-benzo[d]thiazol-2-amine], the IC50 (usually the concentration needed to halve the response being measured) on wildtype Kras / hSOS1 is less than 500 nM; in test [1], more than 500 nM.

Turning to `Nc1nc2c(-c3c(F)cc4c(N5CC6CCC(C5)N6)nc(OCC56CCCN5CCC6)nc4c3F)ccc(F)c2s1` [Compound 680, 4-(4-(3,8-diazabicyclo-[3.2.1]octan-3-yl)-6,8-difluoro-2-((tetrahydro-1H-pyrrolizin-7a(5H)-yl)methoxy)quinazolin-7-yl)-7-fluorobenzo[d]thiazol-2-amine], the IC50 on wildtype Kras / hSOS1 is more than 500 nM; in test [1], less than 500 nM.

Take `Nc1nc2c(-c3c(Cl)cc4c(N5CC6CCCC(C5)NC6)nc(OC[C@@]56CCCN5C[C@H](F)C6)nc4c3F)ccc(F)c2s1` (stereo partly drawn) [Compound 512, 4-(4-(3,9-diazabicyclo-[3.3.2]decan-3-yl)-6-chloro-8-fluoro-2-(((2R,7aS)-2-fluorotetrahydro-1H-pyrrol-izin-7a(5H)-yl)methoxy)-quinazolin-7-yl)-7-fluoro-benzo[d]thiazol-2-amine]: the concentration for half-maximal inhibition (IC50) at wildtype Kras / hSOS1 is more than 500 nM; in test [1], less than 500 nM.

`Cc1ccc2[nH]nc(C#N)c2c1-c1ccc2c(N3CC4CCC(C3)N4)nc(OC[C@@]34CCCN3C[C@H](F)C4)nc2c1F` [Compound 561, 4-(4-(3,8-diazabicyclo-[3.2.1]octan-3-yl)-8-fluoro-2-(((2R,7aS)-2-fluorotetra-hydro-1H-pyrrolizin-7a(5H)-yl)methoxy)quinazolin-7-yl)-5-methyl-1H-indazole-3-carbonitrile]: the IC50 (at wildtype Kras / hSOS1; in test [1]) was more than 500 nM throughout.

Consider `N#Cc1c(N)sc2cc(F)cc(-c3c(Cl)cc4c(N5CC6CCC(C5)N6)nc(OC[C@@]56CCCN5C[C@H](F)C6)nc4c3F)c12` [Compound 476, 4-(4-(3,8-diazabicyclo-[3.2.1]octan-3-yl)-6-chloro-8-fluoro-2-(((2R,7aS)-2-fluorotetrahydro-1H-pyrrolizin-7a(5H)-yl)meth-oxy)quinazolin-7-yl)-2-amino-6-fluorobenzo[b]-thiophene-3-carbonitrile], for which the IC50 (on wildtype Kras / hSOS1; in test [1]) was less than 500 nM throughout.

As to `CN1CCC[C@H]1COc1nc(N2CCCC(n3ccnc3)CC2)c2cc(Cl)c(-c3cccc4sc(N)nc34)c(F)c2n1` (stereo partly drawn) [Compound 651, 4-(4-(4-(1H-imidazol-1-yl)-azepan-1-yl)-6-chloro-8-fluoro-2-(((S)-1-methyl-pyrrolidin-2-yl)methoxy)-quinazolin-7-yl)benzo[d]-thiazol-2-amine], the IC50 at wildtype Kras / hSOS1 is more than 500 nM; in test [1], less than 500 nM.

Consider `CN1CCCC1CCNc1nc(N2CC3CCC(C2)N3)c2ccc(-c3ccc(F)c4sc(N)nc34)nc2n1` (stereo not drawn) [Compound 697, 4-(4-(3,8-diazabicyclo-[3.2.1]octan-3-yl)-2-((2-(1-methylpyrrolidin-2-yl)-ethyl)amino)pyrido[2,3-d]-pyrimidin-7-yl)-7-fluoro-benzo[d]thiazol-2-amine], for which the IC50 (at wildtype Kras / hSOS1; in test [1]) was more than 500 nM each time.

Take `Cc1cc(N)nc(-c2ccc3c(N4CC5CCC(C4)N5)nc(OC[C@@]45CCCN4C[C@H](F)C5)nc3c2F)c1C1CC1` [Compound 648, 6-(4-(3,8-diazabicyclo-[3.2.1]octan-3-yl)-8-fluoro-2-(((2R,7aS)-2-fluorotetra-hydro-1H-pyrrolizin-7a(5H)-yl)methoxy)quinazolin-7-yl)-5-cyclopropyl-4-methyl-pyridin-2-amine]: the 50% inhibitory concentration (IC50) (at wildtype Kras / hSOS1; in test [1]) was more than 500 nM in each case.

Turning to `N#CN1CCN(c2nc(OCC34CCCN3CCC4)nc3c(F)c(-c4ccc(F)c5sc(N)nc45)c(Cl)cc23)CC(F)(F)C1` [Compound 551, 4-(7-(2-amino-7-fluorobenzo[d]thiazol-4-yl)-6-chloro-8-fluoro-2-((tetrahydro-1H-pyrrolizin-7a(5H)-yl)methoxy)quinazolin-4-yl)-6,6-difluoro-1,4-diazepane-1-carbonitrile], the concentration for half-maximal inhibition (IC50) on wildtype Kras / hSOS1 was more than 500 nM; in test [1], less than 500 nM.
